{"source": "PubChem BioAssay AID2060504", "about": "(Molecular Pharmacology Branch, DTP, NCI, 2025);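 note: viability read after seven days of drug exposure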;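 for viability, T/C: luminescence signal used as a proxy for viable cells; 100% = DMSO vehicle control wells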", "system": "636577-100-R-J1-PDC complex spheroid viability", "experiment": "Anticancer human tumor 636577-100-R-J1-PDC patient-derived endometrial adenocarcinoma cell line growth inhibition [GQUAD]", "conditions": "for IC50: curve of first compound; for viability, T/C: stronger effect = lower value", "text": "DNA G-quadruplex Stabilizer Agents in Combinations in Complex Spheroids\nA high-throughput screen of multi-cell type tumor spheroids was designed to identify active combinations of DNA G-quadruplex stabilizer agents and targeted small molecules. Complex spheroids include a stromal component modeled by human endothelial cells (HUVEC) and fibroblasts modeled by human mesenchymal stem cells (MSCs). The concentration ranges selected for each drug and investigational agent were based upon clinically achievable concentrations if the clinical Cmax of the agent was known.\nCompounds. The drugs and investigational agents: pidnarulex (CX-5461; NSC782164), APTO-253 (NSC789042), BRACO-19 (NSC847499), peposertib (NSC802822), ceralasertib (NSC780249), elimusertib (NSC800525), camonsertib (NSC841442), AZD-1390 (NSC803789), olaparib (NSC753686), talazoparib (NSC767125), ART-558 (NSC835418), sotorasib (NSC818433), MRTX-1133 (NSC836407), SN-38 (NSC673596), topotecan (NSC609699), etoposide (NSC141540), doxorubicin (NSC123127), gemcitabine (NSC613327), 5-fluorouracil (NSC19893), paclitaxel (NSC125973), vemurafenib (NSC761431), panobinostat (NSC761190), R-306465 (JNJ-16241199; NSC773264), adavosertib (NSC754352), TP-3654 (NSC805149), carboplatin (NSC241240), KSQ-4279 (NSC840948), and staurosporine (NSC755774) were obtained from the National Cancer Institute (NCI) Developmental Therapeutics Program Chemical Repository (34). The FDA-approved anticancer drug set is available from the NCI Developmental Therapeutics Program. […] The stock solutions were prepared in dimethyl sulfoxide (DMSO, Sigma-Aldrich, St. Louis, MO, cat. D2650) at 800-fold the tested concentration and stored at -70 degrees C prior to their use. All drugs and investigational agents were tested over a range starting from a high concentration at or near the clinical Cmax and decreasing in half-log increments. If the clinical Cmax for an agent had not been determined, the highest concentration tested was 10 microM.\n2.3 Cell Culture. All cells were maintained in an incubator at 37 degrees C and 5% CO2 with 95% humidity. The PDC lines were cultured according to standard operating procedures established by the NCI PDMR. All PDCs were thawed and cultured in Matrigel-coated flasks prepared with a working solution of 1X Ham's F-12 nutrient mix, without supplementation (Invitrogen, cat. 11765054), 100 U/mL penicillin-streptomycin (Invitrogen, cat. 15140122), and 2.5% Matrigel (Corning Inc., cat. 354248) for the first three passages. The 857933-349-R-J2-PDC line was cultured in 6C/Colon 1B media, which includes advanced DMEM/F-12 (Thermo Fisher Scientific, cat. 12634028), 10 mM HEPES (Thermo Fisher Scientific, cat. 15630080), 1X GlutaMAX supplement (Thermo Fisher Scientific, cat. 35050061), 0.1 mg/mL primocin (InvivoGen, cat. ant-pm-2), 10% defined fetal bovine serum, heat inactivated (HyClone Laboratories Inc., cat. SH30070.03HI), 50% L-WRN conditioned media (ATCC, cat. CRL-3276), 1.25 mM N-Acetyl-L-cysteine (Sigma-Aldrich, cat. A9165), 10 mM nicotinamide (Sigma-Aldrich, cat. N0636), 1X B-27 supplement (Thermo Fisher Scientific, cat. 17504044), 1X N-2 supplement (Thermo Fisher Scientific, cat. 17502048), 10 microM Y-27632 dihydrochloride (Tocris Bioscience, cat. 1254), and 50 ng/mL human EGF recombinant protein (Thermo Fisher Scientific, cat. PHG0311). The 485176-168-R4-J1-PDC line was cultured in Panc media, which includes all 6C/Colon 1B media components plus 100 ng/mL human FGF-10 (Thermo Fisher Scientific, cat. 100-26), 500 nM SB-431542 (Selleckchem, cat. S1067), and gastrin (Tocris, cat. 3006).\n[…]", "data": [{"smiles": "CC[C@@]1(O)C(=O)OCc2c1cc1n(c2=O)Cc2cc3c(CN(C)C)c(O)ccc3nc2-1", "note": "+ CN(C)c1ccc(Nc2c3ccc(NC(=O)CCN4CCCC4)cc3nc3cc(NC(=O)CCN4CCCC4)ccc23)cc1", "values": [{"measurement": "IC50", "setting": "second compound 0.0316 µM", "result": 18.5, "unit": "nM"}, {"measurement": "IC50", "setting": "second compound 0.1 µM", "result": 18.6, "unit": "nM"}, {"measurement": "IC50", "setting": "second compound 0.316 µM", "result": 18.7, "unit": "nM"}, {"measurement": "IC50", "setting": "second compound 1 µM", "result": 11.8, "unit": "nM"}, {"measurement": "IC50", "setting": "second compound 3.16 µM", "result": "< 0.999", "unit": "nM"}, {"measurement": "IC50", "setting": "second compound 10 µM", "result": "< 0.999", "unit": "nM"}, {"measurement": "viability, T/C", "setting": "second compound 0.0316 µM, first compound 0.000999 µM", "result": 108, "unit": "%"}, {"measurement": "viability, T/C", "setting": "second compound 0.0316 µM, first compound 0.00316 µM", "result": 75.3, "unit": "%"}, {"measurement": "viability, T/C", "setting": "second compound 0.0316 µM, first compound 0.00999 µM", "result": 72.1, "unit": "%"}, {"measurement": "viability, T/C", "setting": "second compound 0.0316 µM, first compound 0.0316 µM", "result": 37.2, "unit": "%"}, {"measurement": "viability, T/C", "setting": "second compound 0.0316 µM, first compound 0.0999 µM", "result": 21.1, "unit": "%"}, {"measurement": "viability, T/C", "setting": "second compound 0.0316 µM, first compound 0.316 µM", "result": 27.1, "unit": "%"}, {"measurement": "viability, T/C", "setting": "second compound 0.1 µM, first compound 0.000999 µM", "result": 88.6, "unit": "%"}, {"measurement": "viability, T/C", "setting": "second compound 0.1 µM, first compound 0.00316 µM", "result": 74.7, "unit": "%"}, {"measurement": "viability, T/C", "setting": "second compound 0.1 µM, first compound 0.00999 µM", "result": 74.2, "unit": "%"}, {"measurement": "viability, T/C", "setting": "second compound 0.1 µM, first compound 0.0316 µM", "result": 29.5, "unit": "%"}, {"measurement": "viability, T/C", "setting": "second compound 0.1 µM, first compound 0.0999 µM", "result": 22.3, "unit": "%"}, {"measurement": "viability, T/C", "setting": "second compound 0.1 µM, first compound 0.316 µM", "result": 23.6, "unit": "%"}, {"measurement": "viability, T/C", "setting": "second compound 0.316 µM, first compound 0.000999 µM", "result": 77.8, "unit": "%"}, {"measurement": "viability, T/C", "setting": "second compound 0.316 µM, first compound 0.00316 µM", "result": 65.9, "unit": "%"}, {"measurement": "viability, T/C", "setting": "second compound 0.316 µM, first compound 0.00999 µM", "result": 62.7, "unit": "%"}, {"measurement": "viability, T/C", "setting": "second compound 0.316 µM, first compound 0.0316 µM", "result": 41.5, "unit": "%"}, {"measurement": "viability, T/C", "setting": "second compound 0.316 µM, first compound 0.0999 µM", "result": 22, "unit": "%"}, {"measurement": "viability, T/C", "setting": "second compound 0.316 µM, first compound 0.316 µM", "result": 23.9, "unit": "%"}, {"measurement": "viability, T/C", "setting": "second compound 1 µM, first compound 0.000999 µM", "result": 64.3, "unit": "%"}, {"measurement": "viability, T/C", "setting": "second compound 1 µM, first compound 0.00316 µM", "result": 96.1, "unit": "%"}, {"measurement": "viability, T/C", "setting": "second compound 1 µM, first compound 0.00999 µM", "result": 54, "unit": "%"}, {"measurement": "viability, T/C", "setting": "second compound 1 µM, first compound 0.0316 µM", "result": 30.4, "unit": "%"}, {"measurement": "viability, T/C", "setting": "second compound 1 µM, first compound 0.0999 µM", "result": 24.4, "unit": "%"}, {"measurement": "viability, T/C", "setting": "second compound 1 µM, first compound 0.316 µM", "result": 22.7, "unit": "%"}, {"measurement": "viability, T/C", "setting": "second compound 3.16 µM, first compound 0.000999 µM", "result": 34.8, "unit": "%"}, {"measurement": "viability, T/C", "setting": "second compound 3.16 µM, first compound 0.00316 µM", "result": 45.4, "unit": "%"}, {"measurement": "viability, T/C", "setting": "second compound 3.16 µM, first compound 0.00999 µM", "result": 37.6, "unit": "%"}, {"measurement": "viability, T/C", "setting": "second compound 3.16 µM, first compound 0.0316 µM", "result": 26.2, "unit": "%"}, {"measurement": "viability, T/C", "setting": "second compound 3.16 µM, first compound 0.0999 µM", "result": 21.2, "unit": "%"}, {"measurement": "viability, T/C", "setting": "second compound 3.16 µM, first compound 0.316 µM", "result": 20, "unit": "%"}, {"measurement": "viability, T/C", "setting": "second compound 10 µM, first compound 0.000999 µM", "result": 6.05, "unit": "%"}, {"measurement": "viability, T/C", "setting": "second compound 10 µM, first compound 0.00316 µM", "result": 6.87, "unit": "%"}, {"measurement": "viability, T/C", "setting": "second compound 10 µM, first compound 0.00999 µM", "result": 5.66, "unit": "%"}, {"measurement": "viability, T/C", "setting": "second compound 10 µM, first compound 0.0316 µM", "result": 4.71, "unit": "%"}, {"measurement": "viability, T/C", "setting": "second compound 10 µM, first compound 0.0999 µM", "result": 5.96, "unit": "%"}, {"measurement": "viability, T/C", "setting": "second compound 10 µM, first compound 0.316 µM", "result": 4.24, "unit": "%"}]}]}
